Data: patent US6399625B1, “1-oxorapamycins” (Wyeth, priority 2000, dated 2002)
≈ marks a conversion by molar mass, not a printed value. Read-outs that look alike come from different tables or passages of the source.

Experiments:
Type in all cases: cell-based
[1] = test system: A. fumigatus GC 3092; assay: Antifungal activity, microtiter broth dilution MIC
Experimental: (§1) The antifungal activity for the 1-oxorapamycins of this invention was confirmed in a standard pharmacological test procedure which measured the ability of the compound being evaluated to inhibit fungal growth. 1-Oxorapamycin (Compound I), 1-oxorapamycin 42-ester with 3-hydroxy-2-(hydroxymethyl)-2-methylpropionic acid (Compound II), and 42-O-(2-hydroxy)ethyl 1-oxorapamycin (Compound III) were evaluated as representative compounds of this invention. The procedure used and results obtained are briefly described below. A 96 U-bottom microtiter plate was filled (50 μl/well) with RPMI 1640. The compounds to be evaluated were placed in appropriate wells, and serial diluted in successive wells to provide 11 dilutions. The concentrations ranged from 64 through 0.06 μg/ml. An adjusted inoculum of fungi (50 μl) was added to each well and the plates were incubated at 35° C. for 24-48 hours. […] Nystatin and rapamycin were used for the purpose of comparison.

[2] = test system: A. niger GC 3091; assay: Antifungal activity, microtiter broth dilution MIC; conditions: 24-48 hours
Experimental: as §1

[3] = test system: A. niger GC 6591; assay: Antifungal activity, microtiter broth dilution MIC; conditions: 24-48 hours
Experimental: as §1

[4] = test system: C. albicans GC 3064; assay: Antifungal activity, microtiter broth dilution MIC; conditions: 24-48 hours
Experimental: as §1

[5] = test system: C. albicans GC 3065; assay: Antifungal activity, microtiter broth dilution MIC; conditions: 24-48 hours
Experimental: as §1

[6] = test system: C. albicans GC 3066; assay: Antifungal activity, microtiter broth dilution MIC; conditions: 24-48 hours
Experimental: as §1

[7] = test system: C. krussii GC 3067; assay: Antifungal activity, microtiter broth dilution MIC; conditions: RPMI 1640, 35° C., 24-48 hours
Experimental: as §1

[8] = test system: C. lusitaniae GC 3068; assay: Antifungal activity, microtiter broth dilution MIC; conditions: RPMI 1640, 35° C., 24-48 hours; for MIC: Clavispora lusitaniae
Experimental: as §1

[9] = test system: C. parapsilosis GC 3074; assay: Antifungal activity, microtiter broth dilution MIC; conditions: 24-48 hours
Experimental: as §1

[10] = test system: C. parapsilosis GC 3075; assay: Antifungal activity, microtiter broth dilution MIC; conditions: 24-48 hours
Experimental: as §1

[11] = test system: C. parapsilosis GC 3076; assay: Antifungal activity, microtiter broth dilution MIC; conditions: 24-48 hours
Experimental: as §1

[12] = test system: C. pseudotropicalis 3070; assay: Antifungal activity, microtiter broth dilution MIC; conditions: RPMI 1640, 35° C., 24-48 hours
Experimental: as §1

[13] = test system: C. tropicalis GC 3080; assay: Antifungal activity, microtiter broth dilution MIC; conditions: 24-48 hours
Experimental: as §1

[14] = test system: C. tropicalis GC 3081; assay: Antifungal activity, microtiter broth dilution MIC; conditions: 24-48 hours
Experimental: as §1

[15] = test system: A431 (vulva epidermoid origin) tumor cell line; assay: Antineoplastic activity, tumor cell growth inhibition (sulforhodamine B); conditions: 48 hours
Source text: (§2) Antineoplastic activity for the compounds of this invention was confirmed by evaluating the antineoplastic activity of representative compounds of this invention (Compounds I-III) against six tumor cell lines in vitro. Briefly, tumor cells from six cell lines were placed in wells of a 96 well microtiter plate. The following tumor cell lines were used: 3T3 (ovarian), 3T3/H2N (ovarian—resistant to cis-platin), A431 (vulva epidermoid origin), SW620 (colon), SKBR3 (breast), and MDA-435 (breast). The tumors cells were grown in the presence of serial dilutions of the compound to be evaluated for 48 hours, and cell growth determined using a colorimetric procedure (sulforhrodamine B). The inhibition of growth was calculated compared to the number of cells at the time of test compound addition. Results are expressed as an IC50 (μg/ml); N/A indicates the compound was not evaluated against that cell line. The following IC50s was listed on Table 2.

[16] = test system: SKBR3 (breast) tumor cell line; assay: as above; conditions: 48 hours
Source text: as §2

[17] = test system: SW620 (colon) tumor cell line; assay: as above; conditions: 48 hours
Source text: as §2

[18] = test system: 3T3 (ovarian) tumor cell line; assay: as above; conditions: Mus musculus, NIH3T3, 3T3 cells, 48 hours
Source text: as §2

[19] = test system: 3T3/H2N (ovarian—resistant to cis-platin) tumor cell line; assay: as above; conditions: 3T3/H2N cells, 48 hours
Source text: as §2

[20] = test system: MDA-435 (breast) tumor cell line; assay: as above; conditions: MDA435 cells, 48 hours
Source text: as §2

[21] = test system: SH-SY5Y cells; assay: Neuroregeneration activity, neurite outgrowth; conditions: aphidicolin pretreated, mean ± SEM
Source text: The neuroregeneration activity for the compounds of this invention was confirmed in a standard pharmacological test procedure by evaluating 1-oxo-rapamycin (Compound I) as representative compound of this invention, against SH-SY5Y cells in vitro [Gold et al., Exp Neurol 147: 269-278, 1997]. Briefly, SH-SY5Y cells were placed in 6-well plate treated with aphidicolin for 5 days followed by the test compounds using 6-well plates. For controls, wells were untreated, or treated with nerve growth factor (NGF) alone. Test wells were treated with NGF plus compound I or rapamycin. Cells were photographed at 168 hours. Analysis of neuritic lengths was performed on photographic prints using a Houston Instrument HI-PAD digitizing tablet connected to an IBM XT computer with appropriate software (Bioquant IV, R&M Biometrics, Nashville, Tenn.). Mean values for axonal areas were compared using by ANOVA (STATVIEW, Abacus Concepts, Inc., Berkeley, Calif. The following table summarizes the results that were obtained.

## CO[C@H]1CC2CC[C@@H](C)[C@@](O)(O2)C(=O)C(=O)N2CCCC[C@H]2C(=O)O[C@H]([C@H](C)CC2CC[C@@H](OCCO)[C@H](OC)C2)CC(=O)[C@H](C)/C=C(\C)[C@@H](O)[C@@H](OC)C(=O)[C@H](C)C[C@H](C)C(=O)C/C=C/C=C/1C (stereo partly shown) [Compound III, 42-O-(2-Hydroxy)ethyl 1-oxorapamycin]
[1]; A. fumigatus GC 3092, RPMI 1640, 35° C., 24-48 hours
  ANTIFUNGAL ACTIVITY (MIC): 2 µg/mL
[2]; RPMI 1640, 35° C.
  ANTIFUNGAL ACTIVITY (MIC): >32 µg/mL
[3]; RPMI 1640, 35° C.
  ANTIFUNGAL ACTIVITY (MIC): >32 µg/mL
[4]; RPMI 1640, 35° C.
  ANTIFUNGAL ACTIVITY (MIC): 4 µg/mL
[5]; RPMI 1640, 35° C.
  ANTIFUNGAL ACTIVITY (MIC): 2 µg/mL
[6]; RPMI 1640, 35° C.
  ANTIFUNGAL ACTIVITY (MIC): 2 µg/mL
[7]
  ANTIFUNGAL ACTIVITY (MIC): >32 µg/mL
[8]; C. lusitaniae GC 3068, first listing (r26)
  ANTIFUNGAL ACTIVITY (MIC): 2 µg/mL
[9]; RPMI 1640, 35° C.
  ANTIFUNGAL ACTIVITY (MIC): 2 µg/mL
[10]; RPMI 1640, 35° C.
  ANTIFUNGAL ACTIVITY (MIC): 2 µg/mL
[11]; RPMI 1640, 35° C.
  ANTIFUNGAL ACTIVITY (MIC): 2 µg/mL
[12]
  ANTIFUNGAL ACTIVITY (MIC): 2 µg/mL
[13]; RPMI 1640, 35° C.
  ANTIFUNGAL ACTIVITY (MIC): 2 µg/mL
[14]; RPMI 1640, 35° C.
  ANTIFUNGAL ACTIVITY (MIC): 2 µg/mL
[15]; A431 cells
  Antineoplastic Activity (IC50): 0.48 µg/mL
[16]; SKBR3 cells
  Antineoplastic Activity (IC50): 0.038 µg/mL
[17]; SW620 cells
  Antineoplastic Activity (IC50): 1.9 µg/mL

## CO[C@H]1CC2CC[C@@H](C)[C@@](O)(O2)C(=O)C(=O)N2CCCC[C@H]2C(=O)O[C@H]([C@H](C)CC2CC[C@@H](O)[C@H](OC)C2)CC(=O)[C@H](C)/C=C(\C)[C@@H](O)[C@@H](OC)C(=O)[C@H](C)C[C@H](C)C(=O)C/C=C/C=C/1C (stereo partly shown) [Compound I, 1-Oxo-rapamycin]
[1]; Aspergillus fumigatus, GC3092, read-out: ANTIFUNGAL ACTIVITY (MIC)
  MIC: 64 µg/mL (≈ 68.8 µM)
[2]; Aspergillus niger, GC3091, RPMI 1640, 35° C.
  MIC: 64 µg/mL (≈ 68.8 µM)
[3]; Aspergillus niger, GC6591, RPMI 1640, 35° C.
  MIC: 64 µg/mL (≈ 68.8 µM)
[4]; Candida albicans, GC3064, RPMI 1640, 35° C.
  MIC: 8 µg/mL (≈ 8.6 µM)
[5]; Candida albicans, GC3065, RPMI 1640, 35° C.
  MIC: 2 µg/mL (≈ 2.15 µM)
[6]; Candida albicans, GC3066, RPMI 1640, 35° C.
  MIC: 2 µg/mL (≈ 2.15 µM)
[7]
  MIC: 16 µg/mL (≈ 17.2 µM)
[8]; GC3068, C. lusitaniae GC 3068, first listing (r26), read-out: ANTIFUNGAL ACTIVITY (MIC)
  MIC: 0.5 µg/mL (≈ 0.538 µM)
[8]; GC3068, read-out: ANTIFUNGAL ACTIVITY (MIC), C. lusitaniae GC 3068, second listing (r28)
  MIC: 2 µg/mL (≈ 2.15 µM)
[9]; Lodderomyces parapsilosis, GC3074, RPMI 1640, 35° C.
  MIC: 2 µg/mL (≈ 2.15 µM)
[10]; Lodderomyces parapsilosis, GC3075, RPMI 1640, 35° C.
  MIC: 1 µg/mL (≈ 1.08 µM)
[11]; Lodderomyces parapsilosis, GC3076, RPMI 1640, 35° C.
  MIC: 2 µg/mL (≈ 2.15 µM)
[12]; Kluyveromyces marxianus
  MIC: 0.5 µg/mL (≈ 0.538 µM)
[13]; Candida tropicalis, GC3080, RPMI 1640, 35° C.
  MIC: 2 µg/mL (≈ 2.15 µM)
[14]; Candida tropicalis, GC3081, RPMI 1640, 35° C.
  MIC: 0.5 µg/mL (≈ 0.538 µM)
[18]
  IC50: 0.89 µg/mL (≈ 0.957 µM)
[19]
  IC50: 2.3 µg/mL (≈ 2.47 µM)
[15]; Homo sapiens, A-431, A431 cells
  IC50: 6.2 µg/mL (≈ 6.67 µM)
[20]
  IC50: 6 µg/mL (≈ 6.45 µM)
[16]; Homo sapiens, SK-BR-3, SKBR3 cells
  IC50: 3.6 µg/mL (≈ 3.87 µM)
[17]; Homo sapiens, SW-620, SW620 cells
  IC50: 12.7 µg/mL (≈ 13.7 µM)
[21]; NGF plus test compound
  Mean Neurite Lengths after 168 h, Neurite Length: 233.7 ± 8.8 μm

## NGF: nerve growth factor (NGF), control treatment alone and co-treatment in neurite test
[21]; NGF alone (control)
  Mean Neurite Lengths after 168 h, Neurite Length: 196.5 ± 7.7 μm
